# From US8414883B2, “Parvovirus cancer therapy and combination with chemotherapy” (priority 2007, dated 2013)
# Entries after “also recorded” stand apart in the source; their conditions may differ. Like-named read-outs stand apart in the source and are kept apart here.
# How the values were obtained:
# BxPC3 cells = assay: MTT cytotoxicity of H-1PV, gemcitabine and their combination, BxPC3; format: cell-based; conditions: Homo sapiens
# Experimental: (§1) Survival was measured using MTT assays performed 72 h after infection, in comparison with mock-treated cultures (100%), and is inversely expressed as cell death rate. The data presented are means from 3 independent experiments carried out in quadruplicates.
# (§2) For cytotoxicity assessment, cells were seeded in 96-well plates at a density of 2×10^3 cells per well and treated as indicated in the Figure Legends. Cell viability was determined by the colorimetric MTT (3-(4,5-dimethylthiazolyl-2)-2,5-diphenyltetrazolium bromide) assay, as recommended by the manufacturer (Sigma, Deisenhofen, Germany).
# (§3) Means and standard deviations (SD) were calculated from triplicate in vitro experiments. […] The isobologram was created from the data obtained for the combination of the two agents. […] CI=1 represents the conservation isobologram and indicates additive effects. CI values below 1 indicate higher than the expected additive effect (synergy).
# Colo357 cells = assay: MTT cytotoxicity of H-1PV, gemcitabine and their combination, Colo357; format: cell-based; conditions: Homo sapiens
# Experimental: as §1, §2, §3
# MiaPaCa-2 cells = assay: MTT cytotoxicity of H-1PV, gemcitabine and their combination, MiaPaCa-2; format: cell-based, human
# Experimental: as §1, §2, §3
# Panc-1 cells = assay: MTT cytotoxicity of H-1PV, gemcitabine and their combination, Panc-1; format: cell-based; conditions: Homo sapiens
# Experimental: as §1, §2, §3
# SU86.86 cells = assay: MTT cytotoxicity of H-1PV, gemcitabine and their combination, SU86.86; format: cell-based, human
# Experimental: as §1, §2, §3
# T3M-4 cells = assay: MTT cytotoxicity of H-1PV, gemcitabine and their combination, T3M-4; format: cell-based, human
# Experimental: as §1, §2, §3
# Drug sensitivity of parental and resistant cells was assessed in both MTT and clonogenic survival assays.
# HA-RPC cells = assay: MTT cytotoxicity on rat PDAC cells; format: cell-based; conditions: compared with the human PDAC cells
# Experimental: as §2
# [1] = test system: intrapancreatic HA-RPC tumors; assay: Survival of PDAC-bearing rats after combined gemcitabine and H-1PV; format: in vivo, Lewis rats; conditions: vs. mock treatment or gemcitabine monotherapy
# Experimental: Animal survival was monitored over a period of 100 days and is presented as Kaplan-Meyer curves, with the median survival and P values indicated below.
# Male Lewis rats (Janvier, Le Genest Saint Isle, France) weighing 180-200 g were used for pancreatic carcinoma implantation. 5.10^6 HA-RPC cells were injected in the pancreatic parenchyma. Tumor progression is confined to the pancreatic tail for the first 3 weeks after implantation, leading to lymph node invasion during the 4th week. Liver metastases appear at weeks 5-6 and death with lung metastasis occurs within weeks 6-9.[17] Animals were kept under conventional conditions (temperature 22±2° C., relative humidity 55±10%, dark-light rhythm of 12 hr) with unrestricted access to a balanced pellet diet and water. Animal experiments were performed according to the French and European Community directives for animal care (number 86/609/EEC of Nov. 24, 1986). […]
# Mean and standard deviations from triplicate in vitro experiments were calculated. Difference in tumour volume, determined in vivo through mCT-scan size measurements, was tested using a one-way analysis of variance followed by a parametric Student's unpaired t test as Bartlett's test indicated homogeneity of variance. […] The survival curves were generated using the Kaplan-Meier method, and the differences between the curves were assessed by the log-rank test. […]
# [2] = Toxicological assessment of blood markers in PDAC-bearing rats; format: in vivo, Lewis rats; conditions: rat model
# Experimental: Blood samples were analyzed for: (A) red blood cell (RBC), platelet, and white blood cell (WBC) counts and related parameters; (B) liver (aspartate amino transferase [ASAT], alanine amino transferase [ALAT]) and kidney (Creatinine) markers. The data shown are means with SD bars.
# H-1PV was inoculated intratumorally (i.t.). Blood samples were taken from animal tail vein 2 weeks after the last therapeutic treatment. Toxicological markers were assayed in Strasbourg University Hospital using automated clinical laboratory analysis (Biochemical multiparametric device Biochime ADVIA 160, Siemens, Cergy Pontoise, France).
# U87MG cells = assay: MTT survival of U87MG cells; format: cell-based, human; conditions: 3 days, H-1PV 5 pfU/cell, 25 μM TMZ
# Experimental: The percentage of surviving U87MG cells [%] 3 days (A) and 6 days (B) after treatment with H-1PV (Virus), combined treatment with H-1PV and TMZ (V+TMZ), and treatment with TMZ only (TMZ) is shown.
# (§4) Initially, the rates of survival of the cell lines used in the study were determined using MTT assays in order to check whether these cell lines are sensitive for H-1PV infection and Temozolomide (TMZ) treatment. In addition, the rates of survival after combined treatment with H-1PV and TMZ were determined. […] The graphs of FIGS. 7-11 depict the results after 3 and 6 days, respectively. After 3 days of treatment distinct effects can already be observed. After 6 days the experiments were terminated since control cells were already confluent. In addition, after 6 days further analyses could not be carried out due to the very low rate of survival (depending on the particular cell line).
# U373MG cells = assay: MTT survival of U373MG cells; format: cell-based, human; conditions: U373; 6 days; H-1PV 5 pfU/cell, 25 μM TMZ
# Experimental: The percentage of surviving U373MG cells [%] 3 days (A) and 6 days (B) after treatment with H-1PV (Virus), combined treatment with H-1PV and TMZ (V+TMZ), and treatment with TMZ only (TMZ) is shown.
# as §4
# U343MG cells = assay: MTT survival of U343MG cells; format: cell-based, human; conditions: U343; 6 days; H-1PV 5 pfU/cell, 25 μM TMZ
# Experimental: The percentage of surviving U343MG cells [%] 3 days (A) and 6 days (B) after treatment with H-1PV (Virus), combined treatment with H-1PV and TMZ (V+TMZ), and treatment with TMZ only (TMZ) is shown.
# as §4
smiles,measurement,setting,value
Nc1ccn([C@@H]2O[C@H](CO)[C@@H](O)C2(F)F)c(=O)n1 [gemcitabine],EC50,"BxPC3 cells; BXPC-3, read-out: EC50 comb. 1 gemcitabine, BxPC3, combined with H-1PV MOI 1",20 ng/mL
same,EC50,"BxPC3 cells; BXPC-3, read-out: EC50 comb. 2 gemcitabine, BxPC3, combined with H-1PV MOI 10",7 ng/mL
same,EC50,"BxPC3 cells; BXPC-3, read-out: EC50 mono. gemcitabine",25 ng/mL
same,EC50,"Colo357 cells; COLO357, read-out: EC50 mono. gemcitabine",1.5 ng/mL
same,EC50,"Colo357 cells; read-out: EC50 comb. 1 gemcitabine, Colo357, combined with H-1PV MOI 1",1.3 ng/mL
same,EC50,"Colo357 cells; read-out: EC50 comb. 2 gemcitabine, Colo357, combined with H-1PV MOI 10",0.6 ng/mL
same,EC50,"MiaPaCa-2 cells; Homo sapiens, MIA PaCa-2, read-out: EC50 gemcitabine monotherapy (in brackets)",9 ng/mL
same,EC75 comb. 1 gemcitabine,"MiaPaCa-2 cells; MiaPaCa-2, combined with H-1PV MOI 1",18 ng/mL
same,EC75 comb. 2 gemcitabine,"MiaPaCa-2 cells; MiaPaCa-2, combined with H-1PV MOI 10",2.0 ng/mL
same,EC75 mono. gemcitabine,"MiaPaCa-2 cells; MiaPaCa-2, gemcitabine alone, MTT",30 ng/mL
same,EC50,"Panc-1 cells; PANC-1, read-out: EC50 mono. gemcitabine",400 ng/mL
same,EC50,"Panc-1 cells; read-out: EC50 comb. 1 gemcitabine, Panc-1, combined with H-1PV MOI 1",200 ng/mL
same,EC50,"Panc-1 cells; read-out: EC50 comb. 2 gemcitabine, Panc-1, combined with H-1PV MOI 10",60 ng/mL
same,EC50,"SU86.86 cells; Homo sapiens, SU.86.86, read-out: EC50 gemcitabine monotherapy (in brackets)",2.5 ng/mL
same,EC75 comb. 1 gemcitabine,"SU86.86 cells; SU86.86, combined with H-1PV MOI 1",8.0 ng/mL
same,EC75 comb. 2 gemcitabine,"SU86.86 cells; SU86.86, combined with H-1PV MOI 10",1.3 ng/mL
same,EC75 mono. gemcitabine,"SU86.86 cells; SU86.86, gemcitabine alone, MTT",17 ng/mL
same,EC50,"T3M-4 cells; Homo sapiens, T3M4, read-out: EC50 gemcitabine monotherapy (in brackets)",1.2 ng/mL
same,EC75 comb. 1 gemcitabine,"T3M-4 cells; T3M-4, combined with H-1PV MOI 1",2.4 ng/mL
same,EC75 comb. 2 gemcitabine,"T3M-4 cells; T3M-4, combined with H-1PV MOI 10",1.5 ng/mL
same,EC75 mono. gemcitabine,"T3M-4 cells; T3M-4, gemcitabine alone, MTT",2.5 ng/mL
same,sensitivity to virus and gemcitabine toxicity,HA-RPC cells,same range of sensitivity
same,survival of PDAC-bearing rats,[1],transient protection
same,"bilirubin, ASAT, and ALAT levels",[2]; 2 weeks after last treatment,elevated
same,reticulocyte and monocyte levels,[2]; 2 weeks after last treatment,drop
same,Creatinine levels,[2]; kidney clearance,remained stable
"Cn1nnc2c(C(N)=O)ncn2c1=O [TMZ, Temozolomide]",cells lysed / killed,U87MG cells,about 20%
same,cells lysed / cytotoxic effect,U373MG cells,no cytotoxic effect; also recorded: did not result in cell death
same,cells killed,U343MG cells,more than 80%
